In one experiment the target is T1, Matrilysin (Homo sapiens, UniProt P09237).
T1 sequence (P09237 whole entry): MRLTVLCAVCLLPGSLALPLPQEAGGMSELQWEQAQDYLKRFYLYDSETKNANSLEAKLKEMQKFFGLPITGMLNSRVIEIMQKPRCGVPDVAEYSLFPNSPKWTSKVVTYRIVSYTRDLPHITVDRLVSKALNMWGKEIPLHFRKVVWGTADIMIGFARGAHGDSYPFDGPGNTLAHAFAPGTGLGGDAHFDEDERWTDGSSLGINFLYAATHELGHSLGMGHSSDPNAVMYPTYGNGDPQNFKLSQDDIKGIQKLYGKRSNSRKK
Briefly: Inhibition of MMP7.

The target in experiment [1] is Matrix metalloproteinase-9 (Homo sapiens, UniProt P14780). Briefly: Inhibition of MMP9.
Matrix metalloproteinase-9, sequence (P14780 whole entry, looked up, the tested form may be a part): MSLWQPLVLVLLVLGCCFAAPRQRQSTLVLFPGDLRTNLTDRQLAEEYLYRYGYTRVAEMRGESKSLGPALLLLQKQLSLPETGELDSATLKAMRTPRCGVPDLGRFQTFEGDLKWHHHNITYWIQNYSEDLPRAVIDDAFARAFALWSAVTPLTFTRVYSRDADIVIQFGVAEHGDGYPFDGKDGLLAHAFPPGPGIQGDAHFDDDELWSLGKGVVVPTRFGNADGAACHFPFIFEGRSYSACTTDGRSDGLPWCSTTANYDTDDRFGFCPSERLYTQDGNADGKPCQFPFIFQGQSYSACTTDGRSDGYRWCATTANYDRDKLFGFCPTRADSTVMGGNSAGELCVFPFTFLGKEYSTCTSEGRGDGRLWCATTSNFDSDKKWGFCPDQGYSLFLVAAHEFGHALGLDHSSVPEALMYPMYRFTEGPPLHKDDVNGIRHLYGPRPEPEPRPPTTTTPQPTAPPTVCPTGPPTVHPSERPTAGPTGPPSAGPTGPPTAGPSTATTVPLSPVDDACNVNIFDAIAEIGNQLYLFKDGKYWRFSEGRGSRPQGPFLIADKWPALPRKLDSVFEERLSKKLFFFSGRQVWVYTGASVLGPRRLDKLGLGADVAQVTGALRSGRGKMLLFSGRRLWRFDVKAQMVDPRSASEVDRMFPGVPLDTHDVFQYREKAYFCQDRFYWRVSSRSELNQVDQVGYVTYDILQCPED
For experiment [2], the target named is Disintegrin and metalloproteinase domain-containing protein 17 (Homo sapiens, UniProt P78536). In words: Inhibition of TNF-alpha converting enzyme.
Disintegrin and metalloproteinase domain-containing protein 17, sequence (P78536 whole entry, the tested form may be a part): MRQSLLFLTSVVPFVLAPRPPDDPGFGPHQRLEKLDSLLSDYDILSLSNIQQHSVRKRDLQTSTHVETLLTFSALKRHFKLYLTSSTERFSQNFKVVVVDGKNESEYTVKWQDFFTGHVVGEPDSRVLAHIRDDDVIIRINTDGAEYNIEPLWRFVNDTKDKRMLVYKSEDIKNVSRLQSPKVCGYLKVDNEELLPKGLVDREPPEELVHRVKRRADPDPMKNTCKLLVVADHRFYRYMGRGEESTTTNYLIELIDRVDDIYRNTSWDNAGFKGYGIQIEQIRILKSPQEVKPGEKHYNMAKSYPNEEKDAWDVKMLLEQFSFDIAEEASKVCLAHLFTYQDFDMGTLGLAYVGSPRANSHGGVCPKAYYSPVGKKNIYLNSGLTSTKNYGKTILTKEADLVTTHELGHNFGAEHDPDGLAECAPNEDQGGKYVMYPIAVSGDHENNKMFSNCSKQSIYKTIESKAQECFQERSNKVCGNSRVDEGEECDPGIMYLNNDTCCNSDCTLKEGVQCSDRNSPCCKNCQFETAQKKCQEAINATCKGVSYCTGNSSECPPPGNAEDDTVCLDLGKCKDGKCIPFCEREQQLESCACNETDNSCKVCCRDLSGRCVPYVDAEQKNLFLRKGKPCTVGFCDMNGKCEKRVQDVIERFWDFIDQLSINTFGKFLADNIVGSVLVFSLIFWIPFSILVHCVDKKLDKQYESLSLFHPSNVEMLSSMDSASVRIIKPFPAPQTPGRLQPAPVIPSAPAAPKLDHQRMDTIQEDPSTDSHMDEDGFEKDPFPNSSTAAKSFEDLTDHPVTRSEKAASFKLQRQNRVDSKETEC
Experiment [3] concerns the target 72 kDa type IV collagenase (Homo sapiens, UniProt P08253). Briefly: Inhibition of MMP2.
In the next experiment the target is Neutrophil collagenase (Homo sapiens, UniProt P22894). Briefly: Inhibition of MMP8.
Neutrophil collagenase, sequence (P22894 whole entry): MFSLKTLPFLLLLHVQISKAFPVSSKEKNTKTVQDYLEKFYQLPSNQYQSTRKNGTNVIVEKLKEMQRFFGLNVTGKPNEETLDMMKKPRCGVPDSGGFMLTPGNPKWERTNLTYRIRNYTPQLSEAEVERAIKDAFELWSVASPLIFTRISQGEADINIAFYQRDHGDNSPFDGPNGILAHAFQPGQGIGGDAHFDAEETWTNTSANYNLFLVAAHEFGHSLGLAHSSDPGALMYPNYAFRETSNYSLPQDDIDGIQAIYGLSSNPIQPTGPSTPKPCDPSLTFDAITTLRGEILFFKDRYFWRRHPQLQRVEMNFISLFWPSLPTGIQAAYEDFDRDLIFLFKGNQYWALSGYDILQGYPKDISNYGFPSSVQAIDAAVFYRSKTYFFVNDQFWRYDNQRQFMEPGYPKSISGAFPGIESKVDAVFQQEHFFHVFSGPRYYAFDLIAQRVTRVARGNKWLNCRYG
In the next experiment the target is Collagenase 3 (Homo sapiens, UniProt P45452). In words: Inhibition of MMP13.

Each structure is given as a SMILES string.

72 kDa type IV collagenase, sequence (P08253 whole entry): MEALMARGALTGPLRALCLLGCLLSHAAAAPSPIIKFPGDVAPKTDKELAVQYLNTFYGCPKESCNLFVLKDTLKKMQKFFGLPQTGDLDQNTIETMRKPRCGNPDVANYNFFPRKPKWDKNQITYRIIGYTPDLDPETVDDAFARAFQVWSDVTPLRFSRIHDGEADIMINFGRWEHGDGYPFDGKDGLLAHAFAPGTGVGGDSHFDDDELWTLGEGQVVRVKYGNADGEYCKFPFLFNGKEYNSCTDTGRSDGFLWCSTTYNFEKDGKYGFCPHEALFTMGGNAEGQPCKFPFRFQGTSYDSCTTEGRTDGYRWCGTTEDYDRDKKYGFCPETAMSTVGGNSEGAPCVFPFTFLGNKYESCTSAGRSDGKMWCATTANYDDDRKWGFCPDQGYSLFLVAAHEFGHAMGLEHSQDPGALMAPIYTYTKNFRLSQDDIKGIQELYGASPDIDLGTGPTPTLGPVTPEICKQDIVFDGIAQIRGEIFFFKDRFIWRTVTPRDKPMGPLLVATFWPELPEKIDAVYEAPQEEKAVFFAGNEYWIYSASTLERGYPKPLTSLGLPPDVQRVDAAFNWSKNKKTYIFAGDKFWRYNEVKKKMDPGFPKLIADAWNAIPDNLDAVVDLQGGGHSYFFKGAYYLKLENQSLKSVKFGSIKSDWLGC

By Ki is commonly meant a measure of affinity in units of concentration, obtained from inhibition or displacement. A low value points to tighter binding. Take `CC#CCOc1ccc(S(=O)(=O)N(C)CCS)cc1`: the Ki is 33000 nM at Matrilysin; 200 nM in experiment [1]; 52 nM in experiment [2]; 5700 nM in experiment [3]; 1300 nM on Neutrophil collagenase; 2000 nM at Collagenase 3.

Take `CC#CCNc1ccc(S(=O)(=O)N2CC[C@@H](S)C2)cc1`: the Ki in experiment [2] was 5 nM.

Consider `CC#CCOc1ccc(S(=O)(=O)N2CC[C@@H](S)C2)cc1`, for which the Ki on Matrilysin was greater than 6000 nM; in experiment [3], 5000 nM; at Collagenase 3, 1200 nM.

`CC#CCOc1ccc(S(=O)(=O)N(C)C[C@H](C)S)cc1` returned an inhibition constant (Ki) in experiment [2] of 27 nM. In other words, the double-digit nanomolar range.

`CC#CCOc1ccc(S(=O)(=O)N2CCCC(S)C2)cc1` (racemic): the inhibition constant (Ki) was greater than 3000 nM on Matrilysin, 55 nM in experiment [2], greater than 3000 nM in experiment [3] and 700 nM at Collagenase 3.

Consider `CC#CCOc1ccc(S(=O)(=O)N2CC(S)C2)cc1`, for which the Ki in experiment [2] is 13 nM. In other words, the double-digit nanomolar range.

In turn, `CN1CCN(CC#CCOc2ccc(S(=O)(=O)N3CC[C@@H](S)C3)cc2)CC1` displayed a Ki in experiment [2] of 3400 nM.

In experiment [2], `O=S(=O)(c1ccc(OCC#CCN2CCCCC2)cc1)N1CC[C@@H](S)C1` gave a Ki of 530 nM.

`CC#CCNc1ccc(S(=O)(=O)N2CC(S)C2)cc1` came in with an inhibition constant (Ki) in experiment [2] of 11 nM. Compared with the last compound, the Ki is about 48-fold lower.

Regarding `CC#CCOc1ccc(S(=O)(=O)N(C)CC(=O)NO)cc1`, the Ki is 3400 nM at Matrilysin, 10 nM in experiment [2], 27 nM in experiment [3] and 17 nM at Collagenase 3.
